According to patent publication US4732892A, “L-α-amino acids as transdermal penetration enhancers” (priority 1985, dated 1988):
Where two headings read alike, the source gives them in different places.

Tests used:
[1] = in vitro penetration of levonorgestrel across hairless mouse skin, modified Franz diffusion cell
Excerpt: In the examples, the steady state rate of penetration, or flux, is indicated by the symbol: Jss. The cumulative amount of drug penetrated is indicated by the Symbol: Q. The lag period to reach steady state is indicated by the symbol: tL. The standard deviation for statistical purposes is abbreviated: S.D. The standard error of the mean for statistical purposes is abbreviated S.E.M. Abbreviation "g" denotes grams, "mg" denotes milligram, "mcg" denotes micrograms and "ng" denotes nanograms.
Initially, twelve amino acids were selected for evaluation of their effect on the rate of penetration of levonorgestrel through hairless mouse skin. Differing amino acids were selected according to the structure of their side chain so that at least one amino acid from each of the seven different chemical groups was studied. […] These were incorporated into transdermal drug formulations and the corresponding rates of penetration were determined. […] A total of 36 out of a possible 48 formulations were evaluated. The effect of amino acid, pH and ionic species on the rate of penetration was then analyzed.
The amino acids were dissolved in distilled water and the pH was adjusted by addition of either 0.1 or 1.ON HCl or 1.0N NaOH. Ethanol was then added to give a final ethanol concentration of 40% w/w. The pH was monitored and recorded. […] 1%(w/w) levonorgestrel was suspended in this solvent system. Suspensions were applied to hairless mouse skin as described above.
The penetration of drug across hairless mouse skin was studied in vitro using a modified Franz diffusion cell apparatus as described by Y. W. Chien, P. R. Keshary, Y. C. Huany and P. P. Sarpotdar in "Comparative Controlled Skin Permeation of Nitroglycerin from Marketed Transdermal Delivery Systems," J. Pharmaceutical Sciences, Vol. 72, No. 8 August 1983, pp. 968-970. […] Samples were withdrawn at predetermined times up to a total of 10 hours.
Subsequently, rates of penetration were also determined (in hairless mouse skin a described above) for Norleucine, Norvaline and α-Amino-n-Butyric Acid.

[2] = pH values at which amino acids were tested; cited from earlier work
[3] = Table II, average of all data at all pH values, amino acid 0.2 M

Structure (SMILES): N[C@@H](CS)C(=O)O [Cysteine, L-(+)-Cysteine]
- Jss, steady state rate of penetration of levonorgestrel [1]: 1.6160 mcg/cm^2 /hr
- effect on penetration at specific pHs, in words ([1]; Tables III-VI): greatest affect on penetration
- overall rate of penetration of levonorgestrel, ranking in words ([1]; average of all pH values, P=0.05): provided the highest rates
- Jss, steady state rate of penetration of levonorgestrel ([1]; pH 2.3): 2.154 mcg/cm^2 /hr
- rate of penetration of levonorgestrel, ranking in words ([1]; pH 2.3 to 3.2 (pK1')): significantly increased rate
- Jss, steady state rate of penetration of levonorgestrel ([1]; pH 4.9): 1.1635 mcg/cm^2 /hr
- rate of penetration of levonorgestrel, ranking in words ([1]; pK2' (pH 8.6-10.8)): fastest rate of penetration

Structure (SMILES): CC[C@H](C)[C@H](N)C(=O)O [Isoleucine, L-(+)-Isoleucine]
- Jss, steady state rate of penetration of levonorgestrel [1]: 1.5542 mcg/cm^2 /hr
- effect on penetration at specific pHs, in words [1]: greatest affect on penetration
- overall rate of penetration of levonorgestrel, ranking in words [1]: provided the highest rates
- rate of penetration of levonorgestrel (in words) [1]: relatively high rates of penetration
- Jss, steady state rate of penetration of levonorgestrel ([1]; pH 2.4): 0.921 mcg/cm^2 /hr
- Jss, steady state rate of penetration of levonorgestrel ([1]; pH 4.5): 1.3328 mcg/cm^2 /hr
- Jss, steady state rate of penetration of levonorgestrel ([1]; pH 6): 3.167 mcg/cm^2 /hr

Structure (SMILES): O=C(O)[C@@H]1CCCN1 [Proline, L-(-)-Proline]
- Jss, steady state rate of penetration of levonorgestrel [1]: 0.8462 mcg/cm^2 /hr
- Jss, steady state rate of penetration of levonorgestrel ([1]; pH 2.3): 0.765 mcg/cm^2 /hr
- Jss, steady state rate of penetration of levonorgestrel ([1]; pH 4.6): 1.0863 mcg/cm^2 /hr
- Jss, steady state rate of penetration of levonorgestrel ([1]; pH 6.7): 0.688 mcg/cm^2 /hr

Structure (SMILES): N[C@@H](CC(=O)O)C(=O)O [Aspartic Acid, L-(+)-Aspartic Acid]
- Jss, steady state rate of penetration of levonorgestrel [1, 3]: 1.1538 mcg/cm^2 /hr
- Jss, steady state rate of penetration of levonorgestrel ([1]; pH 4.4): 1.1538 mcg/cm^2 /hr

Structure (SMILES): C#C[C@]1(O)CC[C@H]2[C@@H]3CCC4=CC(=O)CC[C@@H]4[C@H]3CC[C@@]21CC [Levonorgestrel, reference compound]
- effect of pH on rate of penetration ([1]; amino acid present in the formulation): not affected significantly by changing pH
- Average rate of penetration of levonorgestrel in the presence of amino acids ([1]; pH 2.5): 1.0980 mcg/cm^2 /hr
- Average rate of penetration of levonorgestrel in the presence of amino acids ([1]; pH 4.5): 1.1279 mcg/cm^2 /hr
- Average rate of penetration of levonorgestrel in the presence of amino acids ([1]; pH 6.1): 1.2798 mcg/cm^2 /hr
- Average rate of penetration of levonorgestrel in the presence of amino acids ([1]; pH 9.6): 1.0598 mcg/cm^2 /hr

Structure (SMILES): NCC(=O)O [Glycine]
- effect of hundred-fold concentration difference on rate of penetration ([1]; Glycine buffer, previous experimentation): no significant difference in the rate of penetration
- Jss, steady state rate of penetration of levonorgestrel ([1]; Table VI, at pK2', pH 9.6): 1.003 mcg/cm^2 hr
- Jss, steady state rate of penetration of levonorgestrel ([1]; pH 2.4): 0.557 mcg/cm^2 /hr
- Jss, steady state rate of penetration of levonorgestrel ([1]; pH 4.7): 1.2790 mcg/cm^2 /hr
- Jss, steady state rate of penetration of levonorgestrel ([1]; pH 6.0): 0.532 mcg/cm^2 /hr
- Jss, steady state rate of penetration of levonorgestrel ([1]; pH 9.6): 1.003 mcg/cm^2 /hr

Structure (SMILES): CC(C)[C@H](N)C(=O)O [Valine, L-(+)-Valine]
- Jss, steady state rate of penetration of levonorgestrel [1]: 1.8006 mcg/cm^2 /hr
- effect on penetration at specific pHs, in words [1]: greatest affect on penetration
- Jss, steady state rate of penetration of levonorgestrel ([1]; pH 2.4): 1.492 mcg/cm^2 /hr
- Jss, steady state rate of penetration of levonorgestrel ([1]; pH 4.7): 1.7903 mcg/cm^2 /hr
- Jss, steady state rate of penetration of levonorgestrel ([1]; pH 5.9): 2.276 mcg/cm^2 /hr

Structure (SMILES): N[C@@H](CCC(=O)O)C(=O)O [Glutamic Acid, L-Glutamic Acid]
- Jss, steady state rate of penetration of levonorgestrel ([1]; Table II, average of all data at all pH values, amino acid 0.03 M): 0.8277 mcg/cm^2 /hr
- Jss, steady state rate of penetration of levonorgestrel ([1]; Table VI, at pK2', pH 9.9): 0.450 mcg/cm^2 hr
- Jss, steady state rate of penetration of levonorgestrel ([1]; pH 3.8): 0.842 mcg/cm^2 /hr
- Jss, steady state rate of penetration of levonorgestrel ([1]; pH 4.6): 1.1910 mcg/cm^2 /hr
- Jss, steady state rate of penetration of levonorgestrel ([1]; pH 9.9): 0.450 mcg/cm^2 /hr
- rate of penetration of levonorgestrel (in words) ([1]; pH between 4.0 and 5.0): relatively high rates of penetration
- pHISO (isoelectric pH) [2]: 3.8

Structure (SMILES): C[C@H](N)C(=O)O [Alanine, L-Alanine]
- Jss, steady state rate of penetration of levonorgestrel [1]: 0.8553 mcg/cm^2 /hr
- Jss, steady state rate of penetration of levonorgestrel ([1]; pH 4.8): 0.8553 mcg/cm^2 /hr

Structure (SMILES): N=C(N)NCCC[C@H](N)C(=O)O [Arginine, L-(+)-Arginine]
- Jss, steady state rate of penetration of levonorgestrel [1, 3]: 0.8864 mcg/cm^2 /hr
- Jss, steady state rate of penetration of levonorgestrel ([1]; Table VI, at pK2', pH 10.8): 1.012 mcg/cm^2 hr
- Jss, steady state rate of penetration of levonorgestrel ([1]; pH 2.9): 0.688 mcg/cm^2 /hr
- Jss, steady state rate of penetration of levonorgestrel ([1]; pH 4.2): 0.9590 mcg/cm^2 /hr
- Jss, steady state rate of penetration of levonorgestrel ([1]; pH 10.8): 1.012 mcg/cm^2 /hr
- pHISO (isoelectric pH) [2]: 10.8

Structure (SMILES): N[C@@H](Cc1c[nH]c2ccccc12)C(=O)O [Tryptophan, L-(-)-Tryptophan]
- Jss, steady state rate of penetration of levonorgestrel [1]: 0.6033 mcg/cm^2 /hr
- Jss, steady state rate of penetration of levonorgestrel ([1]; pH 3.2): 0.641 mcg/cm^2 /hr
- Jss, steady state rate of penetration of levonorgestrel ([1]; pH 4.7): 0.6020 mcg/cm^2 /hr
- Jss, steady state rate of penetration of levonorgestrel ([1]; pH 6.5): 0.567 mcg/cm^2 /hr

Structure (SMILES): N[C@@H](CO)C(=O)O [Serine, L-(-)-Serine]
- Jss, steady state rate of penetration of levonorgestrel [1]: 0.8628 mcg/cm^2 /hr
- Jss, steady state rate of penetration of levonorgestrel ([1]; pH 4.7): 1.1287 mcg/cm^2 /hr
- Jss, steady state rate of penetration of levonorgestrel ([1]; pH 5.7): 0.896 mcg/cm^2 /hr
